Measurements from patent US10787481B2, “Sugar-dipeptide conjugates as flavor molecules” (NESTEC S.A., priority 2015, dated 2020).
Read-outs that look alike come from different tables or passages of the source.

Experiments:
sensory panel [1] = experiment: Taste threshold concentration in model broth (sensory panel, triangle test); format: in vivo, human; conditions: versus β-alanyl-L-glycine
Protocol: The sensory tests were performed in a sensory panel room at 20-25° C. To avoid a retro-nasal aroma or taste impression, nose clips were used. The sensory panel consisted of 8 to 14 trained persons. The panel was trained to evaluate the taste of aqueous solutions (1 mL each) of the following standard taste compounds by using a triangle test: saccharose (50 mmol/L) and L-alanine (15 mmol/L), respectively, for sweet taste; lactic acid (20 mmol/L) for sour taste; NaCl (12 mmol/L) for salty taste; caffeine (1 mmol/L) and quinine hydrochloride (0.05 mmol/L), respectively, for bitter taste; sodium glutamate (8 mmol/L, pH 5.7) for umami taste; and tannin (0.05%) for astringency. The “white meaty” oral sensations was assessed in a model broth solution prepared from monosodium glutamate monohydrate (1.9 g/L), yeast extract (2.1 g/L), maltodextrin (6.375 g/L) and sodium chloride (2.9 g/L) in bottled water (pH 5.9).

sensory panel [2] = conditions: chicken soup with 1 g monosodium glutamate in 500 mL; compound at 2 g/L; 12 panelists
Protocol: Chicken soups were prepared by dissolving 6 g chicken base powder (detailed recipe shown in Table 1) and 1 g monosodium glutamate in 500 mL hot water.
The sensory evaluation was carried out by 12 panelists, previously screened for their sensory abilities.

sensory panel [3] = conditions: tomato soup; compound at 2 g/L

SMILES: O=C(O)CNC(=O)CCNCC(=O)[C@@H](O)[C@H](O)[C@H](O)CO
- lowering of the taste threshold molar concentration by a factor (sensory panel [1]): about 4
- sensory difference described by panel (sensory panel [2]): increased the spicy, savory and meaty flavours
- sensory difference described by panel (sensory panel [3]): increased the savory, fatty and spicy notes
